# Source: patent US10370387B2, “Tricyclic fused thiophene derivatives as JAK inhibitors” (Incyte Corporation, priority 2012, dated 2019)
# Structures can show the parent of a compound that is named as a salt.
# Tested on: human JAK1
# Assay: In vitro JAK kinase assay (HTRF, phosphorylation of biotinylated peptide), JAK1
# Type: biochemical
# Settings: ratio of JAK2 IC50 to JAK1 IC50, 1 mM ATP
# Experimental: Compounds herein were tested for inhibitory activity of JAK targets according to the following in vitro assay described in Park et al., Analytical Biochemistry 1999, 269, 94-104. The catalytic domains of human JAK1 (a.a. 837-1142), JAK2 (a.a. 828-1132) and JAK3 (a.a. 781-1124) were expressed using baculovirus in insect cells and purified. The catalytic activity of JAK1, JAK2 or JAK3 was assayed by measuring the phosphorylation of a biotinylated peptide. The phosphorylated peptide was detected by homogenous time resolved fluorescence (HTRF). IC50s of compounds were measured for each kinase in the 40 μL reactions that contain the enzyme, ATP and 500 nM peptide in 50 mM Tris (pH 7.8) buffer with 100 mM NaCl, 5 mM DTT, and 0.1 mg/mL (0.01%) BSA. For the 1 mM IC50 measurements, ATP concentration in the reactions was 1 mM. Reactions were carried out at room temperature for 1 hour and then stopped with 20 μL 45 mM EDTA, 300 nM SA-APC, 6 nM Eu-Py20 in assay buffer (Perkin Elmer, Boston, Mass.). Binding to the Europium labeled antibody took place for 40 minutes and HTRF signal was measured on a PHERA star plate reader (BMG, Cary, N.C.). The Example compounds were each tested in the Example A assay (see Table 1 for data for the compounds of the examples as tested by the assay of Example A at 1 mM ATP).
row,JAK2/JAK1,SMILES
1,>10,"C[C@@H](O)c1nc2cnc3ccsc3c2n1C1CCC(O)(CC#N)CC1 (single isomer, unassigned) [24 (first peak)]"
2,>10,"C[C@@H](O)c1nc2cnc3ccsc3c2n1C1CCC(O)(CC#N)CC1 (single isomer, unassigned) [24 (second peak)]"
3,>2,"C[C@@H](O)c1nc2cnc3ccsc3c2n1C1CCC(NCCC#N)CC1 (single isomer, unassigned) [30 (first peak)]"
4,>10,"C[C@@H](O)c1nc2cnc3ccsc3c2n1C1CCC(NCCC#N)CC1 (single isomer, unassigned) [30 (second peak)]"
5,>5,"N#CCC1CCC(CO)(n2cnc3cnc4ccsc4c32)CC1 (single isomer, unassigned) [72 (second peak), [4-(Hydroxymethyl)-4-(1H-imidazo[4,5-d]thieno[3,2-b]pyridin-1-yl)cyclohexyl]acetonitrile]"
6,>10,"C[C@@H](O)c1nc2cnc3ccsc3c2n1C1CCNCC1F (stereo partly drawn) [9 (2nd peak), (1R)-1-[1-(3-Fluoropiperidin-4-yl)-1H-imidazo[4,5-d]thieno[3,2-b]pyridin-2-yl]ethanol]"
7,>3,"C[C@@H](O)c1nc2cnc3ccsc3c2n1[C@H]1CCCOC1 [Example 1, (1R)-1-{1-[(3S)-Tetrahydro-2H-pyran-3-yl]-1H-imidazo[4,5-d]thieno[3,2-b]pyridin-2-yl}ethanol]"
8,>10,"C[C@@H](O)c1nc2cnc3ccsc3c2n1[C@H]1CC[C@H](CC#N)CC1 [Example 2, (trans-4-{2-[(1R)-1-Hydroxyethyl]-1H-imidazo[4,5-d]thieno[3,2-b]pyridin-1-yl}cyclohexyl)acetonitrile]"
9,>10,"C[C@@H](O)c1nc2cnc3ccsc3c2n1[C@H]1CC[C@H](O)CC1 [Example 3, trans-4-{2-[(1R)-1-Hydroxyethyl]-1H-imidazo[4,5-d]thieno[3,2-b]pyridin-1-yl}cyclohexanol]"
10,>10,"C[C@@H](O)c1nc2cnc3ccsc3c2n1[C@H]1CC[C@H](NCC(F)(F)F)CC1 [Example 4, (1R)-1-(1-{trans-4-[(2,2,2-Trifluoroethyl)amino]cyclohexyl}-1H-imidazo[4,5-d]thieno[3,2-b]pyridin-2-yl)ethanol]"
11,>10,"C[C@@H](O)c1nc2cnc3ccsc3c2n1[C@H]1CC[C@H](CCS(C)(=O)=O)CC1 [Example 5, (1R)-1-(1-{trans-4-[2-(Methylsulfonyl)ethyl]cyclohexyl}-1H-imidazo[4,5-d]thieno[3,2-b]pyridin-2-yl)ethanol]"
12,>6,"C[C@@H](O)c1nc2cnc3ccsc3c2n1[C@H]1CC[C@@H](n2cncn2)CC1 [Example 6, (1R)-1-{1-[cis-4-(1H-1,2,4-Triazol-1-yl)cyclohexyl]-1H-imidazo[4,5-d]thieno[3,2-b]pyridin-2-yl}ethanol]"
13,>10,"C[C@@H](O)c1nc2cnc3ccsc3c2n1[C@H]1CC[C@@H](C#N)CC1 [Example 7, cis-4-{2-[(1R)-1-Hydroxyethyl]-1H-imidazo[4,5-d]thieno[3,2-b]pyridin-1-yl}cyclohexanecarbonitrile]"
14,>10,"C[C@@H](O)c1nc2cnc3ccsc3c2n1[C@H]1CC[C@H](CCC#N)CC1 [Example 8, 3-(trans-4-{2-[(1R)-1-Hydroxyethyl]-1H-imidazo[4,5-d]thieno[3,2-b]pyridin-1-yl}cyclohexyl)propanenitrile]"
15,>10,"C[C@@H](O)c1nc2cnc3ccsc3c2n1[C@H]1CC[C@H](CC#N)CC1.Cl [Example 10, (trans-4-{2-[(1R)-1-Hydroxyethyl]-1H-imidazo[4,5-d]thieno[3,2-b]pyridin-1-yl}cyclohexyl)acetonitrile HCl salt]"
16,>10,"C[C@@H](O)c1nc2cnc3ccsc3c2n1[C@H]1CC[C@H](CO)CC1 [Example 11, (1R)-1-{1-[trans-4-(Hydroxymethyl)cyclohexyl]-1H-imidazo[4,5-d]thieno[3,2-b]pyridin-2-yl}ethanol]"
17,>10,"C[C@@H](O)c1nc2cnc3ccsc3c2n1[C@H]1CC[C@H](CF)CC1 [Example 12, (1R)-1-{1-[trans-4-(Fluoromethyl)cyclohexyl]-1H-imidazo[4,5-d]thieno[3,2-b]pyridin-2-yl}ethanol]"
18,>10,"C[C@@H](O)c1nc2cnc3ccsc3c2n1C1CCCCC1 [Example 13, (1R)-1-(1-Cyclohexyl-1H-imidazo[4,5-d]thieno[3,2-b]pyridin-2-yl)ethanol]"
19,>5,"CNS(=O)(=O)C[C@H]1CC[C@H](n2c([C@@H](C)O)nc3cnc4ccsc4c32)CC1 [Example 14, 1-(trans-4-{2-[(1R)-1-hydroxyethyl]-1H-imidazo[4,5-d]thieno[3,2-b]pyridin-1-yl}cyclohexyl)-N-methylmethanesulfonamide]"
20,>9,"C[C@@H](O)c1nc2cnc3ccsc3c2n1C1CCN(CC(F)(F)F)CC1 [Example 15, (1R)-1-{1-[1-(2,2,2-Trifluoroethyl)piperidin-4-yl]-1H-imidazo[4,5-d]thieno[3,2-b]pyridin-2-yl}ethanol]"
21,>10,"C[C@@H](O)c1nc2cnc3ccsc3c2n1C1CCN(CCC#N)CC1 [Example 16, 3-(4-{2-[(1R)-1-Hydroxyethyl]-1H-imidazo[4,5-d]thieno[3,2-b]pyridin-1-yl}piperidin-1-yl)propanenitrile]"
22,>10,"N#CC[C@H]1CC[C@H](n2c(CO)nc3cnc4ccsc4c32)CC1 [Example 17, {trans-4-[2-(Hydroxymethyl)-1H-imidazo[4,5-d]thieno[3,2-b]pyridin-1-yl]cyclohexyl}acetonitrile]"
23,>10,"CS(=O)(=O)NCc1nc2cnc3ccsc3c2n1[C@H]1CC[C@H](CC#N)CC1 [Example 18, N-({1-[trans-4-(Cyanomethyl)cyclohexyl]-1H-imidazo[4,5-d]thieno[3,2-b]pyridin-2-yl}methyl)methanesulfonamide]"
24,>10,"C[C@@H](O)c1nc2cnc3ccsc3c2n1[C@H]1CCC(CO)OC1 (stereo partly drawn) [Example 19, (1R)-1-{1-[(3S)-6-(Hydroxymethyl)tetrahydro-2H-pyran-3-yl]-1H-imidazo[4,5-d]thieno[3,2-b]pyridin-2-yl}ethanol]"

row,SMILES,JAK2/JAK1
1,"Cc1nc2cnc3ccsc3c2n1[C@@H]1CC[C@@H](CC#N)[C@@H](O)C1 (mixture of isomers) [Example 34, Mixture of [(1R, 2R, 4S)-2-hydroxy-4-(2-methyl-1H-imidazo[4,5-d]thieno[3,2-b]pyridin-1-yl)cyclohexyl]acetonitrile trifluoroacetate and [(1S, 2S, 4R)-2-hydroxy-4-(2-methyl-1H-imidazo[4,5-d]thieno[3,2-b]pyridin-1-yl)cyclohexyl]acetonitrile trifluoroacetate]",>10
2,CCc1nc2cnc3ccsc3c2n1[C@@H]1CC[C@@H](CC#N)[C@@H](O)C1 (mixture of isomers) [Example 35],>10
3,"C[C@@H](O)c1nc2cnc3ccsc3c2n1[C@H]1CC[C@H](CC#N)OC1 [Example 20, ((2R,5S)-5-{2-[(1R)-1-Hydroxyethyl]-1H-imidazo[4,5-d]thieno[3,2-b]pyridin-1-yl}tetrahydro-2H-pyran-2-yl)acetonitrile]",>10
